# Tests used:
# Assay type in all cases: cell-based, human
# H226 MPM cells = assay: NK cell migration assay towards H226 spheroids
# Description: NK cell infiltration assay. Immune cell infiltration was assessed as previously described (Kitajima et al., Cancer Discov. 9:34-45 (2019); Mahadevan et al., Cancer Discov. 11:1952-1969 (2021)). Briefly, mesothelioma cancer cell spheroids (H2591, H2461, H226) were generated by seeding 5×10^5 cells in suspension in a ULA dish for 24 hours. […] Samples were then pelleted and resuspended in type I rat tail collagen (Corning) at a concentration of 2.5 mg/mL following the addition of 10×PBS with phenol red and pH adjustment using NaOH. pH 7.0-7.5 was confirmed using PANPEHA Whatman paper (Sigma-Aldrich). Cells and collagen were kept on ice to prevent polymerization. The spheroid-collagen suspension was then injected into the central gel region of the 3D DAX-1 microfluidic cell culture chip (AIM Biotech). Microfluidic devices were utilized as previously described (Aref et al., Lab Chip 18:3129-3143 (2018)), with a central region containing the cell-collagen mixture in a 3D microenvironment (3×10^4 cells H2591 and H2461, 2× 10^4 cells H226 in 10 μL), flanked by 2 media channels. After injection, collagen hydrogels containing cells were incubated for 40 minutes at 37° C. in humidity chambers, then hydrated with culture media, with labeled primary NK cells (ET ratio 2:1) added to one of the side channels. Primary NK cells were labeled with Cell Tracker Red (Thermo Fisher Scientific) following manufacturer's instructions. After 96 hours of incubation, viability staining of cancer cell spheroids and infiltrated immune cells was performed (20-minute incubation with 1 μg/mL solution of Propidium Iodide; Thermo Fisher Scientific). For the experiment with the CXCR3 neutralizing antibody (R&D MAB160), NK cells were pre-treated for 30 minutes prior to loading.
# For quantification, images were captured on a Nikon Eclipse 80i fluorescence microscope equipped with Z-stack (Prior) and CoolSNAP CCD camera (Roper Scientific). Image capture and analysis was performed using NIS-Elements AR software package. Whole device images were achieved by stitching in multiple captures. Quantification of immune cell infiltration into the 3D tumor microenvironment was performed by measuring the total cell area of cell tracker dye in the entire gel region. For the experiment with the CXCR3 neutralizing antibody (R&D MAB160; FIG. 6B), staining was quantified in a square region in the center of the channel to focus on effects of CXCR3 ligands released by tumor cells. Percent dead cell quantification was performed as in PDOTS as described above.
# Immune cell migration assays were performed as previously described (Kitajima et al., Cancer Discov. 9:34-45 (2019)). […]
# MPM cell lines = assay: NK cell killing assay; settings: NK co-culture, only with MPM cells expressing STING
# Description: NK cell killing assay. Target cells (MPM cell lines) were detached via trypsinization, labelled with CellTrace Violet (CTV, LifeTechnologies) and then seeded in a 96-well plate at a cell density of 25,000 cells per well. […] After 6 hours of co-culture, the cells were harvested and incubated with an antibody for the apoptosis marker Annexin V (PE) and the live/dead stain 7-AAD (Biolegend). Cells were analyzed on a BD LSRFortessa with FACSDiva software (BD Biosciences). Data were analyzed using FlowJo software version 10.5.3. The apoptotic cells were evaluated by gating on the CTV+ population and represented as percentage live or dead (late apoptotic) cells. Apoptotic cell analysis was conducted using NK cells extracted from as many as 4 different healthy donors per target MPM cell line to incorporate baseline donor variability.
# T-cells = assay: Immune cell toxicity assays, T-cells
# Description: Immune Cell Toxicity Assays. […] Following treatment, samples were stained with anti-CD45, anti-CD3, anti-CD4, anti-CD8, and anti-CD56 antibodies (Table 1), as well as Zombie Green live/dead (Biolegend 423111) and analyzed by flow cytometry as described above. Data were analyzed using FlowJo software version 10.5.3. As an orthogonal measure of viability, CellTiter-Glo was performed on primary T-cells and NK cells.
# CellTiter-Glo luminescent cell viability assay. Cell viability was assessed using the CellTiter-Glo Luminescent Cell Viability assay (Promega, G7571) according to manufacturer's instructions. […] All conditions were tested in triplicate and plates were read on a Tecan Infinite Mplex Microplate Reader.
# MPM tumor cell lines = assay: 3D vascular model of NK cell migration; settings: presence and absence of the vascular barrier
# Description: 3D vascular model. To generate the tumor-vascular model, H226 spheroids were mixed with collagen rat tail hydrogel (2.5 mg/ml) and injected into the center gel region of the 3D microfluidic chamber (10-15 μL per each microfluidic chamber). After incubation for 30 minutes at 37° C. in sterile humidity chambers, the side wall of one flanked channel (media channel) was coated with a 150 μg/ml collagen solution in PBS to allow for better adhesion of eCs to the channel. After 15 mins, the channel was washed once with media. To create the 3D vessel, 25 μL cell suspension of 3×10^6 cells/ml human umbilical vein endothelial cells (HUVECs; C2519AS, Lonza) were injected in the media channel coated with collagen. The channel was rotated twice to create a confluent hollow-lumen 3D vessel. To allow the cells to attach to the media-gel interface and form a monolayer, the chip was incubated with cells face down for 15 mins. Next, 50 μL cell suspension was reinjected, and the chip was flipped to cover the upper part of the 3D vascular channel. After 90 mins of incubation in the humidity chamber at 37° C., cell culture media was gently added to both channels and further incubated to form a confluent monolayer. After vessel formation, NK cells (labelled with cell tracker) were added to the 3D vessel at 2:1 E:T ratio. […] NK cell migration+/−vessel was quantified at 24 hours. Image capture and analysis was performed using a fluorescence confocal microscope and processing software. The 3D vascular channels were rinsed in PBS and fixed with 4% PFA for 15 min at room temperature. Cell membranes were permeabilized with 0.1% Triton X-100 for 5 min at room temperature and washed twice with PBS. HUVEC cells were stained for F-actin with green phalloidin (Thermo Fisher Scientific A12379) and Hoechst 33342. Images were captured on a Nikon Eclipse 80i fluorescence microscope equipped with Z-stack (Prior) and CoolSNAP CCD camera (Roper Scientific).
# STING = STING immunoblotting in NK cells and TILs
# Description: Immunoblotting. […] Imaging of blots and was performed using the LI-COR Odyssey system.
structure (smiles),measurement,setting,value
Nc1ncnc2c1ncn2[C@@H]1O[C@@H]2COP(=O)([S-])O[C@@H]3[C@H](O)[C@@H](COP([O-])(=S)O[C@H]2[C@H]1O)O[C@H]3n1cnc2c(N)ncnc21.[Na+].[Na+] (stereo partly shown) [ADU-S100],CAR-NK CXCR+ cell migration,H226 MPM cells,increased
same,CAR-NK control cell migration,H226 MPM cells,did not affect
same,migration of cNK cells,H226 MPM cells,increased migration
same,migration of cNK overexpressing CXCR3,H226 MPM cells,decreased migration
same,apoptosis of tumor cells,MPM cell lines,enhanced
same,cytotoxicity to T-cells by flow cytometry,"T-cells; MPM tumor explants, increased from 24 to 72 hours",cytotoxic
same,cytotoxicity in T-cells purified from peripheral blood,T-cells; with or without BCMA CAR,dose-dependent cytotoxicity
same,NK cell migration,MPM tumor cell lines,enhanced NK cell migration
same,time within which STING was degraded,STING; NK cells,3 to 6 h
same,T-cell STING degradation,"STING; T-cells, STING phosphorylated and activated",minimally degraded

# Reference: patent publication US20260183396A1, “CXCR3 OVEREXPRESSION IN CAR-NK CELLS PRIMES MIGRATION/HOMING INTO THE TUMOR MICROENVIRONMENT” (DANA-FARBER CANCER INSTITUTE, INC., priority 2022, published 2026)
